Positions of bridges follow the written chain, without caps; N, C: chain ends. No end group written: not given here.
What was measured:
KS1767 tumors = experiment: In vivo NIR imaging of subcutaneous KS1767 tumors with RGD imaging agent; design: species or system mice; details: subcutaneous KS1767 tumors, i.v. 6 nmol/mouse, image 24 hours after injection
Excerpt: Cy5.5-c(KRGDf; SEQ ID NO. 3) may be used in near infrared (NIR) imaging. Mice inoculated with KS1767 were used for in vivo NIR studies. The mice were four to six week-old athymic nude mice (18-22 g, Harlan Sprague Dawley, Inc. Indianapolis, Ind.) which were housed 5 per cage and fed with sterilized pellet chow (Harlan Sprague Dawley) and sterilized water. The animals were maintained in a pathogen-free mouse colony in the Department of Veterinary Medicine at the University of Texas M.D. Anderson Cancer Center. All experiments were performed in accordance with the guidelines of the Institutional Animal Care and Use Committee.
Tumor cells for use in the animals were harvested near confluence by incubation with 0.05% trypsin-EDTA. Cells were pelleted by centrifugation at 450×g for 5 minutes and resuspended in sterile PBS. […] cells/animal were implanted subcutaneously into the chest wall or hind legs of the mice. Imaging studies were performed when tumors reached 4-6 mm in average diameter.
In vivo fluorescence imaging was accomplished by illuminating the animal with light from a laser diode (35 mW) expanded to an approximate 8 cm diameter circular area. The fluorescent light re-emitted from the animal was collected by an image intensifier (model FS9910C, ITT Night Vision, Roanoke, Va.) lens-coupled to a CCD camera (model CH350, Photometrics, Tucson, Ariz.). The imaging was designed so that the field of view could be varied from 3×3 cm to over 12×12 cm by varying the image distance of the 50 mm lens used to focus the image onto the photocathode of the intensifier. The lens was fitted with a holographic notch-plus filter (660 nm center wavelength; Kaiser Optical Systems, Inc., Ann Arbor, Mich.) and a bandpass filter (710 nm center wavelength) to reject back-scattered and reflected excitation photons. Image acquisition was accomplished using V++ software (Digital Optics, Auckland, New Zealand) and the obtained images were stored in uncompressed tagged image file format (tiff). Data processing and analysis were accomplished using Matlab software (The MathWorks, Inc., Natick, Mass.). For all imaging sessions, the image acquisition parameters were kept constant, and each image required 800 ms of camera integration.
For dynamic in vivo fluorescence imaging, mice were anesthetized with an i.p. injection of 50 mg/kg pentobarbital, and a catheter was placed in the tail vein for i.v. injection of NIR dyes. A white-light image of the animal was obtained using a low-power lamp as a white light source with holographic and interference filters removed. Fluorescence images were then acquired as a function of time following administration of Cy5.5 (6 nmol per/mouse) or Cy5.5-c(KRGDf; SEQ ID NO. 3) (6 nmol per/mouse). […]

human tumor cells = experiment: In vitro tumor cell binding study (fluorescence microscopy); assay type: cell-based; details: SKBr-3, HT1080, MDA-MB-435, MDA-MB-468, U87 (PC-3 and U87 for the Tyr analogue); 37° C.
Experimental: All human tumor cell-lines were obtained from American Type Culture Collection (Rockville, Md.) and were maintained at 37° C. in a humidified atmosphere containing 5% CO2 in Dulbecco's Modified Eagle's Medium/Nutrient Mixture F-12 Ham (DMEM/F12) and 10% FBS (Gibco, Grand Island, N.Y.).
Cells were seeded on cover slips in 24-well plates (Becton Dickinson Labware, Franklin Lakes, N.J.) and incubated in DMEM/F12 culture medium (0.5 ml/well) overnight. Cy5.5 and Cy5.5-HWG polypeptide imaging agents were added into each well at the indicated concentrations. For the blocking study, doxycycline was added to the culture medium followed by the addition of Cy5.5-HWG polypeptide imaging agent 1 hour later. After an incubation period of 5-60 minutes at 37° C., cells were washed twice with PBS and incubated in a solution of Sytox Green in 95% ethyl alcohol (1 μM, Molecular Probe, Eugene, Oreg.) for 15 minutes to fix and stain cell nuclei. For staining of MMP expression, cells that were pretreated with Cy5.5-HWG polypeptide and stained with Sytox Green were incubated with anti-MMP antibody (Sigma) (1 mg/ml; 1:200 dilution) for 1 hour at room temperature. The cells were then washed and incubated with Texas Red conjugated go at anti-rabbit IgG (Molecular Probe, 4 μg/ml) at room temperature for 1 hour. Cells were washed again with PBS and the cover slips were mounted for microscopic examination using a DMR microscope (Leica Microsystems, Inc., Brannockburn, Ill.). The microscope was equipped with a 75W Xenon lamp, 775 nm/845 nm, 560 nm/645 nm, and 480 nm/535 nm (Excitation/emission) filters (Chroma Technology Corp., Brattleboro, Vt.), a Hamamatsu B/W Chilled CCD camera (Hamamatsu Photonics K.K., Hamamatsu City, Japan), and Image-Pro Plus 4.5.1 software (Media Cybernetics, Silver Spring, Md.). In the multiple staining images, Cy5.5, MMPs, and Sytox Green were pseudocolored red, green, and blue, respectively.

SKBr-3 tumors = experiment: In vivo NIR fluorescent imaging with HWG imaging agent; design: species or system mice; details: 4 days after i.v. injection, 15 nmol per mouse
Experimental: Four to six week-old athymic nude mice (18-22 g, Harlan Sprague Dawley, Inc., Indianapolis, Ind.) were housed 5 per cage with sterilized pet chow (Harlan Sprague Dawley) and sterilized water. Animals were maintained in a pathogen-free mouse colony in the Department of Veterinary Medicine at the University of Texas M.D. Anderson Cancer Center. All experiments were performed in accordance with the guidelines of the Institutional Animal Care and Use Committee. Tumor cells were harvested near confluence by incubation with 0.05% trypsin-EDTA. Cells were pelleted by centrifugation at 450×g for 5 minutes and resuspended in sterile PBS. Cells (2-3×10^6/animal) were implanted subcutaneously into the chest wall or the hind legs of the mice. Human PC-3 prostate tumors were obtained by intratibia injection of PC-3 cells into male nude mice. Human U87 glioma tumors were obtained by intracranial injection.
In vivo fluorescence imaging was accomplished by illuminating the animal with light from a laser diode (785 nm, 80 mW for IGC; 660 nm, 35 mW for Cy 5.5 dyes) expanded to an approximate 8 cm diameter circular area. The re-emitted fluorescent light was collected by an image intensifier (model FS9910C, ITT Night Vision, Roanoke, Va.) lens-coupled to a CCD camera (model CH350, Photometrics, Tucson, Ariz.). The imaging was designed so that the field of view could be varied from 3×3 cm to over 12×12 cm by varying the image distance of the 50 mm lens used to focus the image onto the photocathode of the intensifier. The lens was fitted with a holographic notch-plus filter (785 nm center wavelength for ICG and 660 nm center wavelength for Cy5.5 dyes; Kaiser Optical Systems, Inc., Ann Arbor, Mich.) and a bandpass filter (830 nm center wavelength for ICG, 710 nm center wavelength for Cy5.5 dyes) to reject back-scattered and reflected excitation photons. Image acquisition was accomplished using V++ software (Digital Optics, Auckland, New Zealand) and obtained images were stored in uncompressed tagged image file format (tiff). Data processing and analysis was accomplished using Matlab software (The Math Works, Inc., Natick, Mass.).

[1] = target: T1, αvβ3 integrin (on KS1767 cells) (UniProt P06756 31-1048; P05106 27-788); experiment: control in the KS1767 cell adhesion assay on vitronectin-coated wells (FIG. 31)
T1 construct: whole, on cells; also called integrin αvβ3
Experimental: A Cell Adhesion Assay was additionally performed. KS1767 cells were seeded in DMEM/F12 culture medium supplemented with 10% fetal bovine serum for 24 hr. Cells (1×10^5) with different concentrations of c(KRGDf; SEQ ID NO. 3) or Cy5.5-c(KRGDf; SEQ ID NO. 3) were added to vitronectin-coated microliter wells under serum-free conditions and incubated at 37° C. for 1 hr. After washing steps, the bound cells were stained with 5% crystal violet, followed by addition of 0.1M HCl to each well. The concentrations of crystal violet were determined by UV/V is absorption at 627 nm. $IC50$ values were estimated from the dose-activity curves.

[2] = target: T2, pre-activated MMP-2 (gelatinase A), Chemicon assay (UniProt P08253 110-660, limits assumed); experiment: cell-based or functional assay
T2 sequence (looked up): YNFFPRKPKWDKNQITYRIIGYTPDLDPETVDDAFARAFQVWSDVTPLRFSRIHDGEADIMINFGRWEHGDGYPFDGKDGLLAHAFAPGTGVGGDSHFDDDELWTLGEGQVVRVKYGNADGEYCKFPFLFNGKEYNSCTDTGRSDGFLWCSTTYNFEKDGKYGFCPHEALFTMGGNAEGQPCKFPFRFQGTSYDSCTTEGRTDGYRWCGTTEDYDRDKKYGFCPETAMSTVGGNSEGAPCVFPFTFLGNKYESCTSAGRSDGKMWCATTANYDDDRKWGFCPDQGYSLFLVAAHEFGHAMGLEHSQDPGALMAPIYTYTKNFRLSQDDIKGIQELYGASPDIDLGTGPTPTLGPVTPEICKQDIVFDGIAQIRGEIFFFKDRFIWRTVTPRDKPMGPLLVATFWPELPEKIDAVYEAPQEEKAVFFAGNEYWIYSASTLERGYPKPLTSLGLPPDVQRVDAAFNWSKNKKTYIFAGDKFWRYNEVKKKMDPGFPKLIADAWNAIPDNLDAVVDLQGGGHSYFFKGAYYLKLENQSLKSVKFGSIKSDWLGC

T1 sequence (P06756 31-1048, chain 1 of 2): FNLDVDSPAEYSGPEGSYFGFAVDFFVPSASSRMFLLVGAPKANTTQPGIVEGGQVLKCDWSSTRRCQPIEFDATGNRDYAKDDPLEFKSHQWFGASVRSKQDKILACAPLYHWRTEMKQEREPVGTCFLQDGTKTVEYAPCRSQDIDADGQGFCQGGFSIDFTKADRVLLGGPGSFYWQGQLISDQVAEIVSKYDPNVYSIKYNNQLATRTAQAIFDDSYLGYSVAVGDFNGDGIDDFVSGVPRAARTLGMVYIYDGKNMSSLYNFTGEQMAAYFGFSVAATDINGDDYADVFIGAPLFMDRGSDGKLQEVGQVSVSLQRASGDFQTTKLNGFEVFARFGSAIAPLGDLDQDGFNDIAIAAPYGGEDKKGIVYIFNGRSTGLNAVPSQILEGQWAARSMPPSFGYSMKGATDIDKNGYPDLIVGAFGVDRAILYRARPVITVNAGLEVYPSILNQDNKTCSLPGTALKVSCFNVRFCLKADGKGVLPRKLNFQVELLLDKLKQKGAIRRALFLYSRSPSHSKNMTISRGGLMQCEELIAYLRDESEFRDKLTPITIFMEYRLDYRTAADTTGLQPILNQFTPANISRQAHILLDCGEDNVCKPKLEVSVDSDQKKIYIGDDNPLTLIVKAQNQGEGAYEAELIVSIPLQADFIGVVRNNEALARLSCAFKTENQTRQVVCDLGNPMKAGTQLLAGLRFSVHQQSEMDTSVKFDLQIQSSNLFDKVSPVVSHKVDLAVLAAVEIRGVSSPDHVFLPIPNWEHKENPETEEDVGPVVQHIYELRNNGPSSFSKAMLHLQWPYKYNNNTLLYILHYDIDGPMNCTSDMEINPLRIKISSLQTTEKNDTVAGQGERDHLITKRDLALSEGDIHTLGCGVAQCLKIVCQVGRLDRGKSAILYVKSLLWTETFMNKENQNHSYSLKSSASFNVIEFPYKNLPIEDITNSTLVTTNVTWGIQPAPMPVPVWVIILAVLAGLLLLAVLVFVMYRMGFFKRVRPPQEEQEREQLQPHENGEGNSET
T1 sequence (P05106 27-788, chain 2 of 2): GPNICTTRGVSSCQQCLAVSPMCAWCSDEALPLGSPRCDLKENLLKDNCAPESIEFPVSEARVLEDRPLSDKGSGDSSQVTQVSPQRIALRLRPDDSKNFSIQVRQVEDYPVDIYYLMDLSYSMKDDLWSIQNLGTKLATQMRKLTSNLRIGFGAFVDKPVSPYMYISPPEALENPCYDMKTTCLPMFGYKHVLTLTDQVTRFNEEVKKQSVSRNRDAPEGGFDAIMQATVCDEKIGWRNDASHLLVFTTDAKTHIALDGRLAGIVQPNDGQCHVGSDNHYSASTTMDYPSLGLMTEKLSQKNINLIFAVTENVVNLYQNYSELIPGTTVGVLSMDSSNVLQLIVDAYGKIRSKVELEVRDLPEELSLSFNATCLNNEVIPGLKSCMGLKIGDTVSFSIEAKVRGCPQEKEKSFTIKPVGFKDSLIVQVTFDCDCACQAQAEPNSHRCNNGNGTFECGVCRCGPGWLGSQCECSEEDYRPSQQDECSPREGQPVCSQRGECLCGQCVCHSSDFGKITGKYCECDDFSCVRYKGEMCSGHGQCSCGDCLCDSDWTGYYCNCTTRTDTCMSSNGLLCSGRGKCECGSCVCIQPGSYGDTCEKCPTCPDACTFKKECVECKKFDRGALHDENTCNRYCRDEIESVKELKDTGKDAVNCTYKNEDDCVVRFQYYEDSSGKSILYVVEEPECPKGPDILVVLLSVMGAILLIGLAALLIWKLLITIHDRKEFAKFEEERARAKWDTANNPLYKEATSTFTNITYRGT

Molecule: Cy5.5 [reference compound]
- Tumor targeting / uptake in NIR image (KS1767 tumors): almost no optical activity uptake
- Binding to tumor cells (human tumor cells): did not display significant binding
- Fluorescent signal in tumor (SKBr-3 tumors): minimal fluorescence

Molecule: Ac-ACNGRCG (bridge 2-6; also: kind of ring closure not given here, also called control cyclic pentapeptide) [Ac-A-c(CNGRC)-G]
- binding result [1]: no binding

B1: c(KAHWGFTLD)NH2 (SEQ ID NO. 10) (side chain-to-side chain linkage) (peptide)
peptide: KAHWGFTLD
HELM: PEPTIDE1{K.A.H.W.G.F.T.L.D.[am]}$PEPTIDE1,PEPTIDE1,1:R3-9:R3$$$V2.0; N-terminus assumed
SMILES: CC(C)C[C@@H]1NC(=O)[C@H]([C@@H](C)O)NC(=O)[C@H](Cc2ccccc2)NC(=O)CNC(=O)[C@H](Cc2c[nH]c3ccccc23)NC(=O)[C@H](Cc2c[nH]cn2)NC(=O)[C@H](C)NC(=O)[C@@H](N)CCCCNC(=O)C[C@@H](C(N)=O)NC1=O
- IC50 of MMP-2 enzyme inhibition (biotinylated gelatinase substrate cleavage assay) [2]: 5.5 µM

— patent US7371364B2, “Cyclic peptide and imaging compound compositions and uses for targeted imaging and therapy” (Board of Regents, The University of Texas System, priority 2003, dated 2008)
